Test results reported in patent US20040127492A1 (Pharmacia Corporation, priority 2002, published 2004).
Like-named read-outs stand apart in the source and are kept apart here.

What was measured:
MK-3 = MK-3 (Homo sapiens, UniProt Q16644); assay: MK-3 inhibition IC50 (similar method to MK-2, with appropriate modifications); assay type: biochemical; settings: read-out: MK-3 Avg. IC50
Protocol: In practice, the selectivity of a cyclic pyrazole MK-2 inhibitor varies depending upon the condition under which the test is performed and on the inhibitors being tested. However, for the purposes of this specification, the selectivity of a cyclic pyrazole MK-2 inhibitor inhibitor can be measured as a ratio of the in vitro or in vivo IC50 value for inhibition of MK-3, divided by the IC50 value for inhibition of MK-2 (IC50 MK-3/IC50 MK-2). […] The MK-2 or MK-3 inhibiting activity of any of the compounds described herein can be determined by any one of several methods that are well known to those having skill in the art of enzyme activity testing. […] A similar method, with appropriate modifications, Can be used to measure MK-3 inhibitory activity. In addition, the efficacy of one of the present MK-2 inhibiting compounds in therapeutic applications can be determined by testing for inhibition of TNFα production in cell culture and in animal model assays.

MAPKAPK2 (MK-2) = MAPKAPK2 (MK-2) (Homo sapiens, UniProt P49137); assay: Determination of MK-2 IC50 (HSP-peptide phosphorylation, anion exchange resin capture assay); assay type: biochemical
How it was run: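 MAPKAPK2, preactivated by p38α with 0.25 mM ATP for 1 h at 30° C, used at 15 nM to phosphorylate HSP-peptide with 0.03 mM ATP plus [γ33P]ATP, pH 7.5, 2% DMSO, 30 min at 30° C. Labelled peptide counted after anion-exchange resin capture; IC50 from six ten-fold dilutions, triplicate.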

[1] = Table 2, pyrazolylpyrazole MK-2 inhibitors
[2] = Table 2, pyrazolylpyrazole MK-2 inhibitors, read-out: MK-2 Avg. IC50
[3] = Table 5, other cyclic pyrazole MK-2 inhibiting compounds
[4] = Table 5, other cyclic pyrazole MK-2 inhibiting compounds, read-out: MK-2 Avg. IC50
[5] = Table 1, phenoxypyrazole MK-2 inhibitors
[6] = Table 1, phenoxypyrazole MK-2 inhibitors, read-out: MK-2 Avg, IC50

Sequence of MAPKAPK2 (MK-2) (P49137 whole entry, species assumed): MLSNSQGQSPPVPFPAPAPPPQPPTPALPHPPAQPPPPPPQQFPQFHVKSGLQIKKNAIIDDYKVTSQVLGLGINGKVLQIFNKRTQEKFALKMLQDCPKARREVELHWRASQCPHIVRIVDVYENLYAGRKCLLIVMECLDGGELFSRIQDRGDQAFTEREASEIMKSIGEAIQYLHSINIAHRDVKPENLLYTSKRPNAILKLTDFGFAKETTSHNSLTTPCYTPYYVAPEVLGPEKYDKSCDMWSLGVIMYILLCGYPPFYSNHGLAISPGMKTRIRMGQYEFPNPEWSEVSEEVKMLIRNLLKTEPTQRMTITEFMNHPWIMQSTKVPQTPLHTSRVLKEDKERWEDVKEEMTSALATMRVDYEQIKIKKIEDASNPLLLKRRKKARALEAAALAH
Sequence of MK-3 (Q16644 whole entry, species assumed): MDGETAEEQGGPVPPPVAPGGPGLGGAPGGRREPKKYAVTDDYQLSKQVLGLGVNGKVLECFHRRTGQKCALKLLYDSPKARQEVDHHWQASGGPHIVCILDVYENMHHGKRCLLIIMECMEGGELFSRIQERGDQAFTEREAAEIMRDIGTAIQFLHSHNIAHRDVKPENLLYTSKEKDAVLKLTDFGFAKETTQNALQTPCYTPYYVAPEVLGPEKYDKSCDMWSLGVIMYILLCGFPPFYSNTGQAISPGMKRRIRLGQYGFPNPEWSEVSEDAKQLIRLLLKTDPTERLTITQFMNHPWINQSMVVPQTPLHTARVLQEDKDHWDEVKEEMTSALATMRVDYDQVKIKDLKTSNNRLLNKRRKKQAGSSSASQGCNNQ

SMILES | IC50 (MK-3) | IC50 (MAPKAPK2 (MK-2); read-out: MK-2 Avg. IC50) | IC50 (MK-3; [1]) | IC50 (MAPKAPK2 (MK-2); [2]) | further results
O=C(O)c1c2c(nn1CCCNCCc1ccc(Cl)c(Cl)c1)-c1ccncc1CC2 [Example 34] | 10.3 µM | 0.201 µM | – | – | –
CS(=O)(=O)c1ccc(-n2nc(C(N)=O)c3c2-c2cn[nH]c2CC3)cc1 [Example 35] | – | – | ≥ 200 µM | 124 µM | –
O=C(O)c1c2c(nn1CCCNCCCc1cccc(Cl)c1)-c1ccncc1CC2 [Example 35] | 8.57 µM | 0.207 µM | – | – | –
O=C(O)c1c2c(nn1CCCNCCc1ccc(/C=C/c3ccccc3)cc1)-c1cc(/C=C/c3ccccc3)ncc1CC2 [Example 35] | – | – | – | – | IC50 (MK-3; [3]): > 20 µM; IC50 (MAPKAPK2 (MK-2); [4]): 0.528 µM
CCOC(=O)c1c2c(nn1CCCNCCc1ccsc1)-c1cn[nH]c1CC2 [Example 36] | – | – | ≥ 200 µM | 133 µM | –
NCCCn1nc2c(c1C(=O)O)CCc1cc(O)c(-c3cccc(C(=O)O)c3)cc1-2 [Example 36] | – | – | – | – | IC50 (MK-3; [5]): > 200 µM; IC50 (MAPKAPK2 (MK-2); [6]): 47.3 µM
O=C1NCCn2nc3c(c21)CCc1cnc(/C=C/c2ccccc2)cc1-3 [Example 36] | 11.5 µM | 0.21 µM | – | – | –
COc1cc2c(cc1-c1cccc([N+](=O)[O-])c1)-c1nn(CCCNC(=O)OC(C)(C)C)c(C(=O)O)c1CC2 [Example 37] | – | – | – | – | IC50 (MK-3; [5]): > 200 µM; IC50 (MAPKAPK2 (MK-2); [6]): 53.7 µM
NCCn1nc2c(c1C(=O)O)CCc1cnc(/C=C/c3ccccc3)cc1-2 [Example 37] | – | – | – | – | IC50 (MK-3; [3]): 1.21 µM; IC50 (MAPKAPK2 (MK-2); [4]): 0.0413 µM
O=C(O)c1c2c(nn1CCCNCCc1ccc(-c3ccncc3)cc1)-c1ccncc1CC2 [Example 37] | 7.71 µM | 0.211 µM | – | – | –
O=C(O)c1c2c(nn1CCO)-c1cn[nH]c1CC2 [Example 37] | – | – | ≥ 200 µM | 139 µM | –
CC(C)(C)OC(=O)NCCn1nc2c(c1C(=O)O)CCc1c-2cnn1C(c1ccccc1)(c1ccccc1)c1ccccc1 [Example 38] | – | – | ≥ 200 µM | 139 µM | –
CCOC(=O)c1c2c(nn1CCCN)-c1cc(/C=C/c3ccccc3)ncc1CC2 [Example 38] | – | – | – | – | IC50 (MK-3; [3]): > 20 µM; IC50 (MAPKAPK2 (MK-2); [4]): 3.61 µM
COc1cc2c(cc1-c1cccc(C#N)c1)-c1nn(CCCNC(=O)OC(C)(C)C)c(C(=O)O)c1CC2 [Example 38] | – | – | – | – | IC50 (MK-3; [5]): > 200 µM; IC50 (MAPKAPK2 (MK-2); [6]): 56.2 µM
Cn1nc(C(=O)O)c2c1-c1ccc(O)cc1CC2 [Example 39] | – | – | – | – | IC50 (MK-3; [5]): > 200 µM; IC50 (MAPKAPK2 (MK-2); [6]): 56.2 µM
COc1cc2c(cc1CCc1ccc(Cl)cc1)-c1nn(CCCNC(=O)OC(C)(C)C)c(C(=O)O)c1CC2 [Example 40] | – | – | – | – | IC50 (MK-3; [5]): > 200 µM; IC50 (MAPKAPK2 (MK-2); [6]): 59.6 µM
COc1cc2c(cc1-c1cccc(C(F)(F)F)c1)-c1nn(CCCNC(=O)OC(C)(C)C)c(C(=O)O)c1CC2 [Example 41] | – | – | – | – | IC50 (MK-3; [5]): > 200 µM; IC50 (MAPKAPK2 (MK-2); [6]): 63.8 µM
COc1cc2c(cc1-c1ccc(C(C)(C)C)cc1)-c1nn(CCCNC(=O)OC(C)(C)C)c(C(=O)O)c1CC2 [Example 42] | – | – | – | – | IC50 (MK-3; [5]): > 200 µM; IC50 (MAPKAPK2 (MK-2); [6]): 65.7 µM
COc1cc2c(cc1-c1cccc([N+](=O)[O-])c1)-c1nn(CCNC(=O)OC(C)(C)C)c(C(=O)O)c1CC2 [Example 44] | – | – | – | – | IC50 (MK-3; [5]): > 200 µM; IC50 (MAPKAPK2 (MK-2); [6]): 82.2 µM

More lines, main results first:

IC50 (MK-3) | IC50 (MAPKAPK2 (MK-2); read-out: MK-2 Avg. IC50) | IC50 (MK-3; [1]) | IC50 (MAPKAPK2 (MK-2); [2]) | SMILES | further results
10.3 µM | 0.22 µM | – | – | O=C(O)c1c2c(nn1CCCNCCCc1ccc(Br)cc1)-c1ccncc1CC2 [Example 38] | –
11.6 µM | 0.234 µM | – | – | CC(C)(C)c1ccc(CCCNCCCn2nc3c(c2C(=O)O)CCc2cnccc2-3)cc1 [Example 39] | –
– | – | 180 µM | 141 µM | CONC(=O)c1[nH]nc2c1CCc1[nH]ncc1-2 [Example 39] | –
16.1 µM | 0.245 µM | – | – | CC(C)c1cccc(-c2ccc(CCNCCCn3nc4c(c3C(=O)O)CCc3cnccc3-4)cc2)c1 [Example 40] | –
– | – | ≥ 200 µM | 145 µM | NS(=O)(=O)c1ccc(-n2nc(C(=O)O)c3c2-c2cn[nH]c2CC3)cc1 [Example 40] | –
– | – | ≥ 200 µM | 150 µM | O=C(O)c1c2c(nn1CC(F)(F)F)-c1cn[nH]c1CC2 [Example 41] | –
15.7 µM | 0.269 µM | – | – | O=C(O)c1c2c(nn1CCCNCCc1cccs1)-c1ccncc1CC2 [Example 41] | –
36 µM | 0.272 µM | – | – | CN(C)c1ccc(-c2cc3c(cn2)CCc2c-3nn3c2C(=O)NCC3)cc1 [Example 42] | –
– | – | ≥ 200 µM | 180 µM | O=C(O)c1nn(CC(F)(F)F)c2c1CCc1[nH]ncc1-2 [Example 42] | –
– | – | ≥ 200 µM | 181 µM | C=CCn1nc2c(c1C(N)=O)CCc1[nH]ncc1-2 [Example 43] | –
15.8 µM | 0.288 µM | – | – | COc1ccc(-c2cc3c(cn2)CCc2c-3nn3c2C(=O)NCCC3)cc1OC [Example 43] | –
– | – | ≥ 200 µM | 181 µM | CCOC(=O)c1c2c(nn1CCCN)-c1c(SCc3ccccc3)n[nH]c1CC2 [Example 44] | –
